In patent US20260070945A1, “MACROCYCLIC IMMUNOMODULATORS” (Bristol-Myers Squibb Company, priority 2022, published 2026) one finds IC50 data, which are given here for 6 compounds.

SMILES strings stand for the structures. *1 amine or outer side, *2 acyl side, *3 side chain or, on linkers, in order; H or OH if unused. Where a SMILES comes first, the peptide text is derived from it. Bridges are numbered along the chain shown (N, C = ends). [ ]: non-standard residue; d: D form. The star is where a group is joined. Phe(4-guanidino) = N=C(N)Nc1ccc(C[C@H](N)C(=O)O)cc1; Bip = N[C@@H](Cc1ccc(-c2ccccc2)cc1)C(=O)O; Phe(4-NH2) = Nc1ccc(C[C@H](N)C(=O)O)cc1; Phe(3-Me) = Cc1cccc(C[C@H](N)C(=O)O)c1; NH(CH2)8CO = O=C(CCCCCCCCN[*:1])[*:2]; Cha = N[C@@H](CC1CCCCC1)C(=O)O; 12Ado = NCCCCCCCCCCCC(=O)O; Carboxymethyl = O=C(O)C*; NMeA = CN[C@@H](C)C(=O)O; Orn = NCCC[C@H](N)C(=O)O; Aun = NCCCCCCCCCCC(=O)O; Dab = NCC[C@H](N)C(=O)O; AEEA = NCCOCCOCC(=O)O

T1 sequence (Q15116 25-288): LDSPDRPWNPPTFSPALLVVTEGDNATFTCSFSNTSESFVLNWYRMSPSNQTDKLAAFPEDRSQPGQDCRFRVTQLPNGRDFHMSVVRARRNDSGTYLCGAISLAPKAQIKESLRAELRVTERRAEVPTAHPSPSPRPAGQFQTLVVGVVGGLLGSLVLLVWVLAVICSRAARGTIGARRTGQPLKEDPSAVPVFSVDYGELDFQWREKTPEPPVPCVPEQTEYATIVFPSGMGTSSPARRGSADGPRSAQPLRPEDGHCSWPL

The assay concerns the target T1, PD-1/PD-L1 interaction (PE-labeled human PD-L1-Ig binding to Jurkat cell line over-expressing human PD-1) (Homo sapiens, UniProt Q15116).
T1 construct: expressed in transfected cells; host or cells: Jurkat
Put plainly: Jurkat-PD-1 Cell Binding High-Content Screening Assay (CBA). Particulars: PE-labeled PD-L1-Ig 20 nM final, Jurkat-hPD-1 cells; read-out: Jurkat HPD1 PDL1 IC50. The method, boiled down: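 Jurkat-hPD-1 cells (8×10^3/well) in DMEM with 10% fetal calf serum were preincubated with compound for 2 h at 37 °C. PE-labeled PD-L1-Ig was then added at 20 nM final for 1 h. Cells were fixed in paraformaldehyde with Hoechst 33342, washed and imaged by high-content imaging.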
With `Cc1cccc(C[C@@H]2NC(=O)[C@H](CC(=O)O)NC(=O)[C@H](Cc3ccc(OCC(=O)O)cc3)NC(=O)[C@H]([C@@H](C)O)NC(=O)CSC[C@@H](C(=O)N[C@@H](CCN)C(=O)NCCCCCCCCCCCC(=O)NCCCCCCCCCCC(=O)O)NC(=O)[C@H](CCC(=O)O)NC(=O)[C@H](C(C)C)NC(=O)[C@H](CC3CCCCC3)NC(=O)[C@H](CCN)NC(=O)[C@@H](CC(C)C)NC(=O)[C@H](C)N(C)C(=O)[C@H](Cc3ccc(OCC(=O)O)cc3)NC(=O)[C@H](Cc3ccc(-c4ccccc4)cc3)NC(=O)[C@H](Cc3ccc(OCC(=O)O)cc3)NC2=O)c1` [Example 2679] ({CH2CO}-TY(Carboxymethyl)D[Phe(3-Me)]Y(Carboxymethyl)[Bip]Y(Carboxymethyl)[NMeA][dL][Dab][Cha]VEC[Dab][12Ado][Aun]-OH; thioether N-14), the IC50 was found to be 12.2 nM. Turning to `Cc1cccc(C[C@@H]2NC(=O)[C@H](CC(=O)O)NC(=O)[C@H](Cc3ccc(OCC(=O)O)cc3)NC(=O)[C@H]([C@@H](C)O)NC(=O)CSC[C@@H](C(=O)N[C@@H](CCN)C(=O)NCCCCCCCCCCCC(=O)NCCCCCCCCCCCC(=O)O)NC(=O)[C@H](CCC(=O)O)NC(=O)[C@H](C(C)C)NC(=O)[C@H](CC3CCCCC3)NC(=O)[C@H](CCN)NC(=O)[C@@H](CC(C)C)NC(=O)[C@H](C)N(C)C(=O)[C@H](Cc3ccc(OCC(=O)O)cc3)NC(=O)[C@H](Cc3ccc(-c4ccccc4)cc3)NC(=O)[C@H](Cc3ccc(OCC(=O)O)cc3)NC2=O)c1` [Example 2682] ({CH2CO}-TY(Carboxymethyl)D[Phe(3-Me)]Y(Carboxymethyl)[Bip]Y(Carboxymethyl)[NMeA][dL][Dab][Cha]VEC[Dab][12Ado][12Ado]-OH; thioether N-14), the IC50 came out at 58 nM. `Cc1cccc(C[C@@H]2NC(=O)[C@H](CC(=O)O)NC(=O)[C@H](Cc3ccc(NC(=N)N)cc3)NC(=O)[C@H]([C@@H](C)O)NC(=O)CSC[C@@H](C(=O)N[C@@H](CCN)C(=O)NCCCCCCCCC(=O)NCCCCCCCCCCC(=O)O)NC(=O)[C@H](CCCN)NC(=O)[C@H](C(C)C)NC(=O)[C@H](CC3CCCCC3)NC(=O)[C@H](CCN)NC(=O)[C@@H](CC(C)C)NC(=O)[C@H](C)N(C)C(=O)[C@H](Cc3ccc(NC(=N)N)cc3)NC(=O)[C@H](Cc3ccc(-c4ccccc4)cc3)NC(=O)[C@H](Cc3ccc(NC(=N)N)cc3)NC2=O)c1` [Example 2684] ({CH2CO}-T[Phe(4-guanidino)]D[Phe(3-Me)][Phe(4-guanidino)][Bip][Phe(4-guanidino)][NMeA][dL][Dab][Cha]V[Orn]C[Dab][NH(CH2)8CO][Aun]-OH; thioether N-14): the IC50 turned out to be 4.4 nM. On to `Cc1cccc(C[C@@H]2NC(=O)[C@H](CC(=O)O)NC(=O)[C@H](Cc3ccc(OCC(=O)O)cc3)NC(=O)[C@H]([C@@H](C)O)NC(=O)CSC[C@@H](C(=O)N[C@@H](CCC(=O)O)C(=O)NCCOCCOCC(=O)NCCCCCCCCCCCC(=O)O)NC(=O)CNC(=O)[C@H](C(C)C)NC(=O)[C@H](CC3CCCCC3)NC(=O)[C@@H](CCC(=O)O)NC(=O)[C@@H](CC(C)C)NC(=O)[C@H](C)N(C)C(=O)[C@H](Cc3ccc(OCC(=O)O)cc3)NC(=O)[C@H](Cc3ccc(-c4ccccc4)cc3)NC(=O)[C@H](Cc3ccc(OCC(=O)O)cc3)NC2=O)c1` [Example 2686] ({CH2CO}-TY(Carboxymethyl)D[Phe(3-Me)]Y(Carboxymethyl)[Bip]Y(Carboxymethyl)[NMeA][dL][dE][Cha]VGCE[AEEA][12Ado]-OH; thioether N-14), for which the IC50 is 257 nM. `Cc1cccc(C[C@@H]2NC(=O)[C@H](CC(=O)O)NC(=O)[C@H](Cc3ccc(OCC(=O)O)cc3)NC(=O)[C@H]([C@@H](C)O)NC(=O)CSC[C@@H](C(=O)NCC(=O)NCCOCCOCC(=O)NCCCCCCCCCCCC(=O)O)NC(=O)CNC(=O)[C@H](C(C)C)NC(=O)[C@H](CC3CCCCC3)NC(=O)[C@@H](CCC(=O)O)NC(=O)[C@@H](CC(C)C)NC(=O)[C@H](C)N(C)C(=O)[C@H](Cc3ccc(OCC(=O)O)cc3)NC(=O)[C@H](Cc3ccc(-c4ccccc4)cc3)NC(=O)[C@H](Cc3ccc(OCC(=O)O)cc3)NC2=O)c1` [Example 2688] ({CH2CO}-TY(Carboxymethyl)D[Phe(3-Me)]Y(Carboxymethyl)[Bip]Y(Carboxymethyl)[NMeA][dL][dE][Cha]VGCG[AEEA][12Ado]-OH; thioether N-14): the 50% inhibitory concentration (IC50) turned out to be 54.5 nM. With `Cc1cccc(C[C@@H]2NC(=O)[C@H](CC(=O)O)NC(=O)[C@H](Cc3ccc(N)cc3)NC(=O)[C@H]([C@@H](C)O)NC(=O)CSC[C@@H](C(=O)N[C@@H](CCN)C(=O)NCCCCCCCCC(=O)NCCCCCCCCCCC(=O)O)NC(=O)[C@H](CCCN)NC(=O)[C@H](C(C)C)NC(=O)[C@H](CC3CCCCC3)NC(=O)[C@H](CCN)NC(=O)[C@@H](CC(C)C)NC(=O)[C@H](C)N(C)C(=O)[C@H](Cc3ccc(N)cc3)NC(=O)[C@H](Cc3ccc(-c4ccccc4)cc3)NC(=O)[C@H](Cc3ccc(N)cc3)NC2=O)c1` [Example 2689] ({CH2CO}-T[Phe(4-NH2)]D[Phe(3-Me)][Phe(4-NH2)][Bip][Phe(4-NH2)][NMeA][dL][Dab][Cha]V[Orn]C[Dab][NH(CH2)8CO][Aun]-OH; thioether N-14), the IC50 is 6.1 nM.
